The values below come from PMC9909315, “SY-707, an ALK/FAK/IGF1R inhibitor, suppresses growth and metastasis of breast cancer cells” (Acta Biochimica et Biophysica Sinica, 2022).

Assay [1] concerns the target ACK (Homo sapiens, UniProt Q07912). As to the kind of experiment: HTRF kinase enzyme assay. The format is biochemical. The settings on record: ATP at Km. The procedure: (§1) Homogeneous time-resolved fluorescence (HTRF) assay was performed to analyze kinase enzyme activity and compound potency using HTRF ® KinEASE ^TM-TK kit (Cisbio Bioassays, Shanghai, China). Compound SY-707 was serially diluted by 3 folds from 1 mM stock solution in DMSO, and 4 μL of the diluted solution of the compounds was added to 96 μL of reaction buffer (50 mM HEPES, pH 7.0, 0.1 mM Na 3VO 4, 0.01% BAS, 5 mM MgCl 2, 1 mM DTT), then 2.5 μL of 4× compound solution and 5 μL of 2× kinases solution were added to a 384-well plate (OptiPlate-384; PerkinElmer, Wellesley, USA ). The resulted solutions were briefly mixed, centrifuged and incubated for 5 min. Finally, 2.5 μL of 4× ATP/TK peptide (ATP at K m for each kinase) solution was added to the reaction system to initiate the reaction. The enzymatic reaction was carried out for 60-120 min at 23°C, then terminated by addition of 5 μL of detection solution containing TK antibody-cryptate and 5 μL of Streptravidin-XL-665. The mixture was incubated for additional 1 h at 23°C. The fluorescent signals were measured with an EnVision multilabel plate reader (PerkinElmer). IC 50 values of the compounds were calculated using the GraFit software (Version 6.0) and presented as the mean of three independent experiments performed in duplicate.
For orientation: TR-FRET usually uses a lanthanide donor and a delayed reading to cut background.

Assay [2] addresses ALK (Homo sapiens, UniProt Q9UM73). The assay can be described thus: HTRF kinase enzyme assay. In kind it is biochemical. Conditions: ATP at Km. The protocol:
as §1

For assay [3], the target named is FER (Homo sapiens, UniProt P16591). As to the kind of experiment: HTRF kinase enzyme assay. In kind it is biochemical. The settings on record: ATP at Km. The procedure: as §1
The target in assay [4] is FES (Homo sapiens, UniProt P07332). As to the kind of experiment: HTRF kinase enzyme assay. The format is biochemical. Conditions: ATP at Km. The procedure: as §1
The target in assay [5] is IGF1R (Homo sapiens, UniProt P08069). The assay can be described thus: HTRF kinase enzyme assay. The format is biochemical. The settings on record: ATP at Km. The procedure:
as §1

Assay [6] addresses IRK (Homo sapiens, UniProt P06213). The assay can be described thus: HTRF kinase enzyme assay. The settings on record: ATP at Km. The format is biochemical. The procedure:
as §1

The target of assay [7] is LTK (Homo sapiens, UniProt P29376). As to the kind of experiment: HTRF kinase enzyme assay. The settings on record: ATP at Km. The format is biochemical. The protocol: as §1
For assay [8], the target named is PYK2 (Homo sapiens, UniProt Q14289). The assay can be described thus: HTRF kinase enzyme assay. The settings on record: ATP at Km. In kind it is biochemical. The protocol: as §1
Assay [9] has as its system phosphorylation of FAK at Tyr397. The assay can be described thus: Western blot of FAK phosphorylation in MCF-7 cells. The format is cell-based. The settings on record: MCF-7, 1 h treatment. The protocol:
Equal amounts of cell lysates were loaded onto 10% SDS-PAGE gel and separated by electrophoresis. Separated proteins were then electro-transferred onto polyvinylidene fluoride (PVDF) membranes (Millipore, Bedford, USA). After being blocked with Tris-buffered saline containing 0.1% Tween-20 (TBST) and 5% bovine serum albumin (BSA), the membranes were incubated with primary antibodies at room temperature for 2 hours or at 4°C, then washed with TBST, followed by treatment with horseradish peroxidase (HRP)-conjugated goat anti-rabbit IgG secondary antibody at room temperature for another 1 h. The targeted protein bands were visualized using an enhanced chemiluminescence (ECL) plus system (Thermo Fisher Scientific). Primary antibodies against phospho-FAK (3283, 1:1000 dilution), phospho-ERK (4377, 1:2000 dilution), phospho-AKT (4060, 1:2000 dilution), FAK (3285, 1:1000 dilution), AKT (6703, 1:1000 dilution) and β-Actin (5125, 1:10,0000 dilution) were purchased from Cell Signaling Technology (Beverly, USA) and the HRP-conjugated goat anti-rabbit IgG (ZDR-5306, 1:10,000 dilution) was purchased from Jackson (West Grove, USA ).
Cells were cultured in 6-well plates and treated with the indicated concentrations of SY-707 for 1 h before stimulation with or without 100 ng/mL IGF1 for 10 min. Control cells received the drug vehicle with 0.1% DMSO. […]
(In general: Immunoblotting shows a protein as a band on a membrane.)

Chain of LTK (P29376 17-864): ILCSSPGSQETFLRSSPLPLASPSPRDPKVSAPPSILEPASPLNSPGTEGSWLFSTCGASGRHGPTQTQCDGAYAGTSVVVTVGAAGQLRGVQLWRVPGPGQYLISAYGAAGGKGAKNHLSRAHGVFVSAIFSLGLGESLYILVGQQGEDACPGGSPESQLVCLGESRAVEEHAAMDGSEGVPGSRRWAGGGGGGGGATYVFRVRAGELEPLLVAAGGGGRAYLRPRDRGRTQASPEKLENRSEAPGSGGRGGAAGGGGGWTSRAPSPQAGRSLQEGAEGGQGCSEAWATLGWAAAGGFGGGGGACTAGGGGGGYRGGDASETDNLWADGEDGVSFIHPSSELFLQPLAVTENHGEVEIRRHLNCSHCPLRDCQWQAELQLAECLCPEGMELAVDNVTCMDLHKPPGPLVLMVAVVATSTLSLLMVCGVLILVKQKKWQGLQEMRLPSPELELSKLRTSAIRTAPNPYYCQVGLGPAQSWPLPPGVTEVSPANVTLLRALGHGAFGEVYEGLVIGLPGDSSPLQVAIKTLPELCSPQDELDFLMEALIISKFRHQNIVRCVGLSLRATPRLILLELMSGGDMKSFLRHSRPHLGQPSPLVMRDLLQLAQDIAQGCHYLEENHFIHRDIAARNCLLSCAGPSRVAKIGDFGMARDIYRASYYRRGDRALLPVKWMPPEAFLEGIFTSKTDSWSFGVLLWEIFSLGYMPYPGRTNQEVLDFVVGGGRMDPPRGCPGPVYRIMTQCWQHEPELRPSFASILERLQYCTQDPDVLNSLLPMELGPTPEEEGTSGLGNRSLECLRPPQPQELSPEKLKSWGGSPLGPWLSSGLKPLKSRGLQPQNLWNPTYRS
Chain of IGF1R (P08069 31-1367): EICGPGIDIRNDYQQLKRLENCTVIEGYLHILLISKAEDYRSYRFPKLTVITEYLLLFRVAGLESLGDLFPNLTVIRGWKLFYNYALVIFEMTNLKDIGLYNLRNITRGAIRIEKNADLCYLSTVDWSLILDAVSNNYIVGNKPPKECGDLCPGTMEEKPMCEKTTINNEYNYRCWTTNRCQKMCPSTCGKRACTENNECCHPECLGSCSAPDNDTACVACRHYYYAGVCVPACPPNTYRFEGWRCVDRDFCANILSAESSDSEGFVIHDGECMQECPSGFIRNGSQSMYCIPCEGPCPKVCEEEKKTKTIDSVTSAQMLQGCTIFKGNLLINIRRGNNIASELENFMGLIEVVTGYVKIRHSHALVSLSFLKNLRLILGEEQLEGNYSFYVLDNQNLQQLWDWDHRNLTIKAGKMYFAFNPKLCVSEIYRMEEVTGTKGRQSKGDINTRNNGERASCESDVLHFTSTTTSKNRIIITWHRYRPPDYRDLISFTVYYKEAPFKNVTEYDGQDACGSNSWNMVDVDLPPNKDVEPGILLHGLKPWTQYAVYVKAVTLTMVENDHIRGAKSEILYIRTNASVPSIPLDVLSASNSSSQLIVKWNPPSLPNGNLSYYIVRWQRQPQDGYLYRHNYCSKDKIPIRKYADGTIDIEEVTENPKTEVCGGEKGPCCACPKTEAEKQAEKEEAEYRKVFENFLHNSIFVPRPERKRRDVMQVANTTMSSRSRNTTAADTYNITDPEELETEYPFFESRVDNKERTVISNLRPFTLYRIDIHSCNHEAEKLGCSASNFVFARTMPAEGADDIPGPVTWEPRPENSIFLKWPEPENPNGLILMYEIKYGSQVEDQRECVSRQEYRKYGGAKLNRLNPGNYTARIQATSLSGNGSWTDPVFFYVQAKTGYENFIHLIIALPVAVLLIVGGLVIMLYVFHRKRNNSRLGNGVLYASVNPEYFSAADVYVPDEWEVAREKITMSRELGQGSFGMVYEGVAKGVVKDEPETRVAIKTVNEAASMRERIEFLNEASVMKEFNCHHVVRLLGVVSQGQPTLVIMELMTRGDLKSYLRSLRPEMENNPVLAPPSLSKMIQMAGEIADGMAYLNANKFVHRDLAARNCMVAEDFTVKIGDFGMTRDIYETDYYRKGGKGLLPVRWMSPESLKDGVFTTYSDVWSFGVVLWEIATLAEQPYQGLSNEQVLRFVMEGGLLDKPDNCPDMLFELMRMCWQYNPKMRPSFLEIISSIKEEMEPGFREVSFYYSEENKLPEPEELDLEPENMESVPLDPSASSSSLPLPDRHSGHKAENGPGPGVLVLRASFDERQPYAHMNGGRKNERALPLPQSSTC
Chain of FER (P16591 whole entry): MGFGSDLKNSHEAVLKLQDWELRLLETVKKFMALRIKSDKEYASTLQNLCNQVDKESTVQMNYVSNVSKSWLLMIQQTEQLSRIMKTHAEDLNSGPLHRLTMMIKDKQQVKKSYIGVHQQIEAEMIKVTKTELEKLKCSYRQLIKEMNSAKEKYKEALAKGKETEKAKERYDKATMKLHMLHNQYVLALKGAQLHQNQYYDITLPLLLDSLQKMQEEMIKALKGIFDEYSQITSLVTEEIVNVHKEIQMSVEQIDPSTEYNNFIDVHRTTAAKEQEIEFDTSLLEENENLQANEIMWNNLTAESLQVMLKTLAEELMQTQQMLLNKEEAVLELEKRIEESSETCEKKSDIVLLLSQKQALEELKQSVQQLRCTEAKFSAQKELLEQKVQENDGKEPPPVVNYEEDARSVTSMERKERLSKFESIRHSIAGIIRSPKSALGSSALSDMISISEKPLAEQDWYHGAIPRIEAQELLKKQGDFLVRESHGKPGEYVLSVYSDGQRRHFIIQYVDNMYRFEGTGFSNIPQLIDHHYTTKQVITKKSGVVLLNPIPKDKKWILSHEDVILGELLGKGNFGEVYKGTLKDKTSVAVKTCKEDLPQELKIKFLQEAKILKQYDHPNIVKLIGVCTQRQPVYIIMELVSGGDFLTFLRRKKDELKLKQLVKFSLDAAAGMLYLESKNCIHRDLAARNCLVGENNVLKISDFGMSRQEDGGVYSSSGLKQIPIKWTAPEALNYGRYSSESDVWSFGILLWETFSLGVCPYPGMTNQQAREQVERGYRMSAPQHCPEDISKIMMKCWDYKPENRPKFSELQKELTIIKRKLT
Chain of FES (P07332 whole entry): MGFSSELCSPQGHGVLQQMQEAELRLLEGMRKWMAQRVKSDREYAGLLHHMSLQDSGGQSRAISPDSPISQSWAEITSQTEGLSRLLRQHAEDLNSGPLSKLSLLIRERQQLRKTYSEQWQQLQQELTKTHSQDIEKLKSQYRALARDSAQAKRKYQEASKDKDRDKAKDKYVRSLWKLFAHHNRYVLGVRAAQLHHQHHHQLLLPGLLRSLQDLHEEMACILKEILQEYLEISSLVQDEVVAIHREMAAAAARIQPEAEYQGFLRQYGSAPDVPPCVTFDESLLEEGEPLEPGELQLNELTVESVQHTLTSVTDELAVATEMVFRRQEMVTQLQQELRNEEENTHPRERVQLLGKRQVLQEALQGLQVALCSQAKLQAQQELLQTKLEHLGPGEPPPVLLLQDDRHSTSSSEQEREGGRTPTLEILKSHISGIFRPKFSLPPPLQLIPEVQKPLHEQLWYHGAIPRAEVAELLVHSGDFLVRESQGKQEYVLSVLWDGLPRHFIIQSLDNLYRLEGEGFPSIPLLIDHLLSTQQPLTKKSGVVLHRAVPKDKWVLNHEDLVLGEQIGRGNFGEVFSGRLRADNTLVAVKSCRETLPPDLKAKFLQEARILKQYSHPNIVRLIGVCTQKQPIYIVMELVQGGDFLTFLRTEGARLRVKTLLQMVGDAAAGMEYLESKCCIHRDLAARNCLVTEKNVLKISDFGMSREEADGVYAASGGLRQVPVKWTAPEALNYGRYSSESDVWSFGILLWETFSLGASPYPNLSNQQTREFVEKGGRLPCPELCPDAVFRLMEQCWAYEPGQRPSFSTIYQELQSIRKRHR
Chain of PYK2 (Q14289 whole entry): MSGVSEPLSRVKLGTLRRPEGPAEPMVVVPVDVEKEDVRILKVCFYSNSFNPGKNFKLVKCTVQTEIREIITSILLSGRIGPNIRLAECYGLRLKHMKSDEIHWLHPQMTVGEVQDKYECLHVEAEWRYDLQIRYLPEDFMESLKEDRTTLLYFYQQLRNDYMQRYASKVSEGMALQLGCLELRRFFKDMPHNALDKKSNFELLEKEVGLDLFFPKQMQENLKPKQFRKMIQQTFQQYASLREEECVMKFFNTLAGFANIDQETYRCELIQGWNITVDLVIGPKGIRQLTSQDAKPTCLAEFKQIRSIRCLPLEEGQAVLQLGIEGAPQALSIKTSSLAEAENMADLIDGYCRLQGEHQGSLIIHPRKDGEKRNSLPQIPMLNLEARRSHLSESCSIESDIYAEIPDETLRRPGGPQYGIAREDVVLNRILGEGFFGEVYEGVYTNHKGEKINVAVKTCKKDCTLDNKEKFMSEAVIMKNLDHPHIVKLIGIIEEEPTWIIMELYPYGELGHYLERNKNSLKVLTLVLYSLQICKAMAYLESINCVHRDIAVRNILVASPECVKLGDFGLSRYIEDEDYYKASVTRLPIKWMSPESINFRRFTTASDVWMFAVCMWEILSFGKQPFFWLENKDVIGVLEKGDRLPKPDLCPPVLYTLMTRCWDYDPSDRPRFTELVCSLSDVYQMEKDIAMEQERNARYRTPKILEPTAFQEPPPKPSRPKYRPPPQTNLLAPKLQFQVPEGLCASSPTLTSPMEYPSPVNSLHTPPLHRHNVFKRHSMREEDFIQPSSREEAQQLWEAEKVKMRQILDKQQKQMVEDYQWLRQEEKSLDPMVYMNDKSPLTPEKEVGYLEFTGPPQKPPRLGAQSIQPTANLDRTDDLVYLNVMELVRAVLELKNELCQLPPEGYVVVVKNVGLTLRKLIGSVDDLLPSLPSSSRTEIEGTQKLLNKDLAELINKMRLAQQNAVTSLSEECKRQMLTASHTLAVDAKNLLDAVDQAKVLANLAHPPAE

As usually defined, the IC50 is the concentration at which inhibition is half-maximal. Consider `COc1cc(N2CCC(N3CCN(C)CC3)CC2)ccc1Nc1nc2c(c(Nc3ccccc3S(=O)(=O)NC(C)C)n1)CCN2` [SY-707, N-isopropyl-2-((2-((2-methoxy-4-(4-(4-methylpiperazin-1-yl)piperidin-1-yl)phenyl)amino)-6,7-dihydro-5H-pyrrolo[2,3-d]pyrimidin-4-yl)amino)benzenesulfonamide], for which the concentration for half-maximal inhibition (IC50) in assay [1] worked out at 28.7 ± 3.5 nM; in assay [2] it was 2.4 nM; in assay [3] it was 52.3 ± 2.3 nM; in assay [4], 81.8 ± 19 nM; in assay [5], 10.6 ± 0.58 nM; in [6], 7.9 ± 0.3 nM. Moreover, the results for the IC50 in assay [7] and in [8] were 1.9 ± 0.18 nM and 2.4 ± 0.8 nM, respectively. In addition, in assay [9], the “phosphorylation of FAK at Tyr397” value is “dose-dependently suppressed”.
